Results as given in US20160090557A1, “SUBSTRATES COMPRISING MALODOR REDUCTION COMPOSITIONS” (The Procter & Gamble Company, priority 2014, published 2016).

Tests used:
[1] = Blocker Index (BI), expert graders, isovaleric acid malodorous swatch; design: key: BI odor strength 0 (lowest, clean swatch) to 3 (highest)
Text: (§1) Blocker materials suitable for use in consumer products of the present invention are chosen for their ability to decrease malodor, while not interfering with perception of a fragrance. Material selection is done by assigning two indices to a test sample material from two reference scales in order to rank odor strengths. The two reference scales are the Fragrance Fidelity Index (FFI) scale and the Blocker Index (BI) scale. The FFI ranks the ability of the test sample material to impart a perceivable odor which could cause interference when combined with another fragrance and the BI ranks the ability of the test sample material to reduce malodor perception. The two methods for assigning the indices to a test sample on the FFI and the BI reference scales are given below.
(§2) The first step in the method for assigning a BI to a test sample material on the BI reference scale is to create the BI reference swatches. […] Fabric swatches for this test are white knit polycotton (4 inch×4 inch) swatches from EMC ordered as PC 50/50. The supplier is instructed to strip the swatches first, stripping involves washing twice with a fragrance-free detergent and rinsing three times.
The BI scale contains one clean swatch with no malodor applied. […] These solutions are pipetted to the middle of the swatches. […] After drying for 30 minutes in a vented hood, the swatches are wrapped in aluminum foil to prevent odor contamination to the treated swatch. A clean untreated swatch is also included as the lowest anchor point of reference for malodor strength on the BI scale. The BI reference scale swatches should be used within 0.5 to 12 hours and discarded after 12 hours. The swatches are used as scale anchor points when graders evaluate a test sample(s) and are assigned a Blocker Index (BI) as show in Table 12.
The perfumer/expert grader is asked to rank order swatches according to a scale between 0 and 3.
The reference swatches represent the 0, 1, 2, and 3 BIs on the BI reference scale, Table 12. The expert grader should familiarizes him/herself with the strength of the odor on the BI reference swatches by sniffing each one starting at 0 (the lowest odor strength) and ending at 3 (the highest odor strength). This should be done prior to evaluating the swatch treated with the test material.
To evaluate the BI, the test material is applied to a malodorous swatch to determine how well the test material blocks the malodor. […] After drying the malodorous swatch a known concentration of test material solution, between 1 ppm and 100 ppm is pipetted onto the malodorous swatch. […] It is sometimes necessary to evaluate several levels of the test material between about 1 and about 100 ppm to determine the BI.
At least two perfumers/expert graders are used to assign the BI to the test sample. […] The test sample swatch is assigned a BI at or between numbers on the BI in table.

[2] = Fragrance Fidelity Index (FFI), expert graders, treated fabric swatch against ethyl vanillin reference scale
Text: as §1
as §2, with “assigning an FFI” for “assigning a BI”, “to the” for “to a”, “test samples” for “test sample material”, “the FFI” for “the BI”
Pipette 13 μL of each of the three solutions into the middle of a clean swatch resulting in about a 1 cm diameter of the solution in the middle of the swatch. This will create a sensory scale of three swatches with three different odor levels based on the concentration of the solution pipetted onto the swatch. After drying for 30 minutes in a vented hood, the swatches are wrapped in aluminum foil to prevent odor contamination to the treated swatch. A clean untreated swatch is also included as the lowest anchor point of reference for odor strength on the FFI scale. The FFI reference scale swatches should be used within 0.5 to 12 hours and discarded after 12 hours. The swatches are used as scale anchor points when graders evaluate a test sample(s) and are assigned a Fragrance Fidelity Index (FFI) as show in Table 7.
The perfumer/expert panel is asked to rank order swatches according to a scale between 0 and 3.
The reference swatches represent the 0, 1, 2, and 3 FFIs on the FFI reference scale, Table 9. The expert grader should familiarize them self with the strength of the odor on the FFI reference swatches by sniffing each one starting at 0 (the lowest odor strength) and ending at 3 (the highest odor strength). This should be done prior to evaluating the test sample material treated swatch.
A clean swatch is treated with 13 μL of a known concentration of a test sample material resulting in an about 1 cm of the solution on the clean swatch. Just like the reference swatches, the test sample material swatch is dried in a vented hood for 30 minutes and then wrapped in aluminum foil to prevent contamination. […]

[3] = test material Conc 10 ppm on isovaleric acid malodorous swatch
[4] = test material Conc 50 ppm on isovaleric acid malodorous swatch

| Structure (SMILES) | BI [1, 3] | BI [1, 4] | further results |
| --- | --- | --- | --- |
| O=C1CCC2CCCCC2O1 (stereo not drawn) [3,4,4a,5,6,7,8,8a-octahydrochromen-2-one] | 2.0 | 2.0 |  |
| CC1CCC2(C(C)C)CC(C)OC2C1 (stereo not drawn) [4,8-dimethyl-1-(methylethyl)-7-oxybiciclo [4.3.0]nonane] |  |  | BI ([1]; Conc 10 ppm): 2.0; BI ([1]; Conc 50 ppm): 2.2; FFI ([2]; Conc 50 ppm): 0.3 |
| CC(C)(C)C1CCCCC1 [4-tert-butyl cyclohexane] | 2.0 | 2.0 |  |
| CCC(=O)OC1CC2C3C=CCC3C1C2(C)C (stereo not drawn) [8,8-dimethyl-3a,4,5,6,7,7a-hexahydro-1H-4,7-methanoinden-6-yl propionate] |  |  | BI ([1]; Conc 10 ppm): 1.5; BI ([1]; Conc 50 ppm): 2.2; FFI ([2]; Conc 10 ppm): 0; FFI ([2]; Conc 50 ppm): 0 |
| CCCCCCCCCCCCCCCC(=O)OC [Material 109] | 2.0 |  |  |
| CCCCCCCCCCCCO [Material 174] |  | 2.3 |  |
| CC(=O)OCCCCCCC(C)C [Material 204] | 2.0 | 2.7 |  |
| CC1(C)CCc2ccc(CCC=O)cc21 [Material 261, 3-(3,3-dimethyl-2,3-dihydro-1H-inden-5-yl)propanal] |  |  | BI ([1]; Conc 10 ppm): 1.5; BI ([1]; Conc 50 ppm): 2.7; FFI ([2]; Conc 50 ppm): 0.5 |
| CC1(C)CCc2ccc(CCC=O)cc21 [Material 261] | 1.8 | 1.3 |  |
| CC(=O)OC1CC2CC1C1CC=CC21 (stereo not drawn) [Material 281] | 2.0 | 2.0 |  |
| CCCCCCCCCCCC(=O)OCC [Material 391] |  | 2.2 |  |
| C=CC(C)=CCC=C(C)C [Material 524] |  | 2.8 |  |
| CCC(O)COC1CCCCC1C(C)(C)C (stereo not drawn) [Material 677] | 2.3 | 2.0 |  |
| CC(CCO)CCc1ccccc1 (stereo not drawn) [Material 962] | 2.3 | 1.7 |  |
| CCOC(=O)OC1C(C)CCC(C)C1C (stereo not drawn) [Material 1005] |  | 2.6 |  |
| COC(=O)OC1CC/C=C\CCC1 (stereo not drawn) [Material 1139] | 2.0 | 2.7 |  |
| C=C1CCC2OC2(C)CCC2C1CC2(C)C (stereo not drawn) [Material 1148] |  | 2.3 |  |
| CC1(C)C2CCC3(C2)C1C(=O)CCC3(C)C (stereo not drawn) [Material 1149] | 1.5 | 2.3 |  |
| CCCCCCCCCCCO [Undecanol] |  | 2.3 |  |
| CC(C)CC(=O)O [isovaleric acid, reference compound] |  |  | BI reference swatch grade, Ave ([1]; 2 μL 0.08% isovaleric acid, graders 1-5 (Table 10)): 1.0; BI reference swatch grade, single expert grader ([1]; stripped swatch with 2 μL 0.08% isovaleric acid): 1.0; BI reference swatch grade, single expert grader ([1]; stripped swatch with 5 μL 0.08% isovaleric acid): 2.5; BI reference swatch grade, single expert grader ([1]; stripped swatch with 20 μL 0.08% isovaleric acid): 2.5 |
